From paper PMC10743905, “Design, Synthesis, and In Vitro and In Vivo Bioactivity Studies of Hydrazide–Hydrazones of 2,4-Dihydroxybenzoic Acid” (International Journal of Molecular Sciences, 2023)
In brackets after ≈: the same amount, converted by molar mass. Like-named read-outs stand apart in the source and are kept apart here.

What was measured:
[1] = tested on: Bacillus subtilis ATCC 6633; assay: Broth microdilution MIC/MBC; type: cell-based
Source text: Detailed procedures are presented in the Supplementary Materials. […]
(§1) In vitro antimicrobial activity assays - Methodology
(§2) The examined compounds 1 - 24 were screened in vitro for antibacterial and antifungal activities using the broth microdilution method according to procedure reported earlier by our research group and European Committee on Antimicrobial Susceptibility Testing (EUCAST) and Clinical and Laboratory Standards Institute (CLSI) guidelines against a panel of reference and clinical or saprophytic strains of microorganisms, in-cluding Gram-positive bacteria, Staphylococcus aureus ATCC 43300 (Methicillin Resistant S. aureus – MRSA), Staphylococcus aureus ATCC 29213 (Methicillin Susceptible S. aureus – MSSA), Staphylococcus epidermidis ATCC 12228, Enterococcus faecalis ATCC 29212, Micro-coccus luteus ATCC 10240, Bacillus subtilis ATCC 6633 and Bacillus cereus ATCC 10876), Gram-negative bacteria (Bordetella bronchiseptica ATCC 4617, Escherichia coli ATCC 25922, Klebsiella pneumoniae ATCC 13883, Proteus mirabilis ATCC 12453, Salmonella typhimurium ATCC 14028 and Pseudomonas aeruginosa ATCC 9027) and fungi belonging to yeasts (Can-dida albicans ATCC 10231, Candida albicans ATCC 2091, Candida parapsilosis ATCC 22019, Candida glabrata ATCC 90030 and Candida krusei ATCC 14243). The microorganisms be-longing to ATCC came from American Type Culture Collection, routinely used for the evaluation of antimicrobials. All the used microbial cultures were first subcultured on nu-trient agar or Sabouraud agar at 35°C for 18-24 h or 30°C for 24-48 h for bacteria and fungi, […]
(§3) The surface of Mueller-Hinton agar (for bacteria) and RPMI 1640 with MOPS (for fungi) were inoculated with the suspensions of bacterial or fungal species. Microbial suspensions were prepared in sterile saline with an optical density of McFarland standard scale 0.5.
(§4) Samples containing examined compounds were dissolved in dimethyl sulfoxide (DMSO).
(§5) Furthermore, bacterial and fungal suspensions were put onto Petri dishes with solid me-dia containing 2 mg/mL of the tested compounds followed incubation at 37°C for 24h and 30°C for 48h for bacteria and fungi, respectively. The inhibition of microbial growth was judged by comparison with a control culture prepared without any sample tested. Ciprof-loxacin, vancomycin, nitrofurantoin, cefuroxime, ampicillin or nystatin (Sigma) were used as a reference antibacterial or antifungal compounds, respectively.
(§6) Subsequently, the MIC (Minimal Inhibitory Concentration) of the compounds was ex-amined by the microdilution broth method, using their two-fold dilutions in Mueller- […]
(§7) Hinton broth or (for bacteria) and RPMI 1640 broth with MOPS (for fungi) prepared in 96-well polystyrene plates. Final concentrations of the compounds ranged from 1000 to 0.488 µg/ml. Microbial suspensions were prepared in 0.85% NaCl with an optical density of 0.5 McFarland standard. Next each bacterial or fungal suspension was added per each well containing broth and various concentrations of the examined compounds. After incuba-

[2] = tested on: Micrococcus luteus ATCC 10240; assay: Broth microdilution MIC/MBC; type: cell-based
Source text: as §1
as §2, with “antimicrobials.” for “antimicrobials. All the used microbial cultures were first subcultured on nu-trient agar or Sabouraud agar at 35°C for 18-24 h or 30°C for 24-48 h for bacteria and fungi,”
(§8) Samples containing examined compounds were dissolved in dimethyl sulfoxide (DMSO). […]
as §6, §7

[3] = tested on: Staphylococcus epidermidis ATCC 12228; assay: Broth microdilution MIC/MBC; type: cell-based; conditions: ATCC12228, read-out: MIC
Source text: as §1
as §2, with “antimicrobials.” for “antimicrobials. All the used microbial cultures were first subcultured on nu-trient agar or Sabouraud agar at 35°C for 18-24 h or 30°C for 24-48 h for bacteria and fungi,”
as §8, §6, §7

[4] = tested on: Bacillus cereus ATCC 10876; assay: Broth microdilution MIC/MBC; type: cell-based
Source text: as §1, §2, §3, §4, §5, §6, §7

[5] = tested on: Salmonella typhimurium ATCC 14028; assay: Broth microdilution MIC/MBC; type: cell-based
Source text: as §1
as §2, with “antimicrobials.” for “antimicrobials. All the used microbial cultures were first subcultured on nu-trient agar or Sabouraud agar at 35°C for 18-24 h or 30°C for 24-48 h for bacteria and fungi,”
as §8, §6, §7

[6] = tested on: Proteus mirabilis ATCC 12453; assay: Broth microdilution MIC/MBC; type: cell-based; conditions: ATCC12453
Source text: as §1
as §2, with “antimicrobials.” for “antimicrobials. All the used microbial cultures were first subcultured on nu-trient agar or Sabouraud agar at 35°C for 18-24 h or 30°C for 24-48 h for bacteria and fungi,”
as §8, §6, §7

[7] = tested on: Pseudomonas aeruginosa ATCC 9027; assay: Broth microdilution MIC/MBC; type: cell-based; conditions: ATCC9027
Source text: as §1
as §2, with “antimicrobials.” for “antimicrobials. All the used microbial cultures were first subcultured on nu-trient agar or Sabouraud agar at 35°C for 18-24 h or 30°C for 24-48 h for bacteria and fungi,”
as §8, §6, §7

[8] = tested on: Staphylococcus aureus ATCC 29213; assay: Broth microdilution MIC/MBC; type: cell-based
Source text: as §1
as §2, with “antimicrobials.” for “antimicrobials. All the used microbial cultures were first subcultured on nu-trient agar or Sabouraud agar at 35°C for 18-24 h or 30°C for 24-48 h for bacteria and fungi,”
as §8, §6, §7

[9] = tested on: Staphylococcus aureus ATCC 43300; assay: Broth microdilution MIC/MBC; type: cell-based; conditions: Staphylococcus aureus ATCC 43300 (MRSA)
Source text: as §1
as §2, with “antimicrobials.” for “antimicrobials. All the used microbial cultures were first subcultured on nu-trient agar or Sabouraud agar at 35°C for 18-24 h or 30°C for 24-48 h for bacteria and fungi,”
as §8, §6, §7

[10] = tested on: Bordetella bronchiseptica ATCC 4617; assay: Broth microdilution MIC/MBC; type: cell-based; conditions: ATCC4617
Source text: as §1, §2, §3, §4, §5, §6, §7

[11] = tested on: Enterococcus faecalis ATCC 29212; assay: Broth microdilution MIC/MBC; type: cell-based
Source text: as §1, §2, §3, §4, §5, §6, §7

[12] = tested on: Escherichia coli ATCC 25922; assay: Broth microdilution MIC/MBC; type: cell-based; conditions: ATCC25922
Source text: as §1, §2, §3, §4, §5, §6, §7

[13] = tested on: Klebsiella pneumoniae ATCC 13883; assay: Broth microdilution MIC/MBC; type: cell-based; conditions: ATCC13883
Source text: as §1, §2, §3, §4, §5, §6, §7

[14] = tested on: Candida albicans ATCC 10231; assay: Broth microdilution MIC/MFC; type: cell-based; conditions: ATCC10231, read-out: MIC
Source text: as §1, §2, §3, §4, §5, §6, §7

[15] = tested on: Candida albicans ATCC 2091; assay: Broth microdilution MIC/MFC; type: cell-based; conditions: ATCC2091, read-out: MIC
Source text: as §1, §2, §3, §4, §5, §6, §7

[16] = tested on: Candida glabrata ATCC 90030; assay: Broth microdilution MIC/MFC; type: cell-based; conditions: Nakaseomyces glabratus, ATCC90030, read-out: MIC
Source text: as §1, §2, §3, §4, §5, §6, §7

[17] = tested on: Candida krusei ATCC 14243; assay: Broth microdilution MIC/MFC; type: cell-based; conditions: Pichia kudriavzevii, ATCC14243, read-out: MIC
Source text: as §1, §2, §3, §4, §5, §6, §7

[18] = tested on: Candida parapsilosis ATCC 22019; assay: Broth microdilution MIC/MFC; type: cell-based; conditions: Lodderomyces parapsilosis, ATCC22019, read-out: MIC
Source text: as §1, §2, §3, §4, §5, §6, §7

Structure (SMILES): CC1(C)S[C@@H]2[C@H](NC(=O)[C@H](N)c3ccccc3)C(=O)N2[C@H]1C(=O)O [APC, ampicillin, reference compound]
- MIC [1]: 62.5 µg/mL (≈ 0.179 mM)
- MIC ([1]; ATCC6633, read-out: MIC): 62.5 µg/mL (≈ 0.179 mM)

Structure (SMILES): CO/N=C(\C(=O)N[C@@H]1C(=O)N2C(C(=O)O)=C(COC(N)=O)CS[C@H]12)c1ccco1 [CFX, cefuroxime, reference compound]
- MIC [2]: 0.98 µg/mL (≈ 0.00231 mM)
- MIC ([2]; ATCC10240, read-out: MIC): 0.98 µg/mL (≈ 0.00231 mM)
- MIC [3]: 0.24 µg/mL (≈ 0.000566 mM)
- MIC [1]: 15.62 µg/mL (≈ 0.0368 mM)
- MIC ([1]; ATCC6633, read-out: MIC): 15.6 µg/mL (≈ 0.0368 mM)
- MIC [4]: 31.25 µg/mL (≈ 0.0736 mM)
- MIC ([4]; ATCC10876, read-out: MIC): 31.2 µg/mL (≈ 0.0736 mM)

Structure (SMILES): O=C(O)c1cn(C2CC2)c2cc(N3CCNCC3)c(F)cc2c1=O [CIP, ciprofloxacin, reference compound]
- MBC/MIC [5]: 1
- MBC ([5]; Salmonella enterica): 0.06 µg/mL (≈ 0.000181 mM)
- MIC ([5]; Salmonella enterica): 0.06 µg/mL (≈ 0.000181 mM)

Structure (SMILES): Cc1ccccc1/C=N/NC(=O)c1ccc(O)cc1O [Compound 1, 2,4-dihydroxy-N-[(2-methylphenyl)methylidene]benzohydrazide]
- MBC/MIC [2]: > 2
- MBC ([2]; ATCC10240): > 1000 µg/mL
- MIC ([2]; ATCC10240, read-out: MIC): 500 µg/mL (≈ 1.85 mM)
- MIC [6]: > 1000 µg/mL
- MIC [7]: > 1000 µg/mL
- MIC ([5]; Salmonella enterica): > 1000 µg/mL
- MBC/MIC [8]: > 1
- MBC ([8]; ATCC29213): > 1000 µg/mL
- MIC ([8]; ATCC29213): 1000 µg/mL (≈ 3.7 mM)
- MBC [9]: > 1000 µg/mL
- MBC/MIC [9]: > 1
- MIC [9]: 1000 µg/mL (≈ 3.7 mM)
- MIC [3]: > 1000 µg/mL
- MBC/MIC [1]: > 2
- MBC ([1]; ATCC6633): > 1000 µg/mL
- MIC ([1]; ATCC6633, read-out: MIC): 500 µg/mL (≈ 1.85 mM)
- MIC ([4]; ATCC10876, read-out: MIC): > 1000 µg/mL
- MIC [10]: > 1000 µg/mL
- MBC/MIC [11]: > 1
- MBC ([11]; ATCC29212, read-out: MBC): > 1000 µg/mL
- MIC ([11]; ATCC29212, read-out: MIC): 1000 µg/mL (≈ 3.7 mM)
- MIC [12]: > 1000 µg/mL
- MIC [13]: > 1000 µg/mL
- MIC [14]: > 1000 µg/mL
- MIC [15]: > 1000 µg/mL
- MIC [16]: > 1000 µg/mL
- MIC [17]: > 1000 µg/mL
- MIC [18]: > 1000 µg/mL
- melting point: 250 °C
